Test results: patent US4789675A, “1,4-benzoxazine derivatives and pharmaceutical use” (priority 1986, dated 1988)
Structures can show the parent of a compound that is named as a salt. Where two headings read alike, the source gives them in different places.

Legend:
[1] = test system: ischemia-reperfusion-induced ventricular arrhythmia in rats; experiment: Effect on the ischemia-reperfusion-induced ventricular arrhythmia in rats; assay type: in vivo, rat; conditions: p.o., rats with change/rats used; for Cardiac arrest incidence: control 8/18; for Ventricular fibrillation incidence: control 17/18; for Ventricular tachycardia incidence: control 18/18
Method: Male Sprague-Dawley rats, 9 to 10 week old, were orally given the compounds or tap water at a volume of 5 ml/kg. After one hour, the animals were anesthetized with sodium pentobarbital (50 mg/kg, by intraperitoneal injection), and they were subjected to thoractomy under artificial respiration, and the left anterior descending coronary artery was occluded for five minutes. The incidences of ventricular tachycardia, ventricular fibrilation and cardiac arrest for ten minutes after reperfusion of the blood were calculated.

[2] = test system: contraction of rabbit aorta strip caused by norepinephrine (NE); experiment: Vasodilating action: inhibition of contraction of aorta strip caused by norepinephrine (NE); conditions: Oryctolagus cuniculus, compound 10^-5 M, NE 10^-6 M, read-out: Inhibitory percent against contraction (NE)
Method: (§1) A spiral strip of aorta of a rabbit (2 to 3 mm width, about 3 cm length) was allowed to equilibrate by hanging under 2 g force in a Krebs-Henseleitsolution. The solution was saturated with a mixture gas of 97% O2 -3% CO2 which was warmed to 37° C. Inhibitory actions of compounds (10^-5 M) of this invention against contraction of the aorta strip caused by KCl ([…]), norepinephrine (NE) (10^-6 M) or serotonin (5-HT) (10^-6 M), by treating the strip with a compound of this invention 30 minutes before the test (15 minutes in the case of 5-HT), are shown in Table 1 as inhibitory percentage.

[3] = test system: contraction of rabbit aorta strip caused by serotonin (5-HT); experiment: Vasodilating action: inhibition of contraction of aorta strip caused by serotonin (5-HT); conditions: Oryctolagus cuniculus; compound 10^-5 M; 5-HT 10^-6 M; treated 15 minutes before the test; read-out: Inhibitory percent against contraction (5-HT)
Method: as §1

[4] = test system: Spontaneously hypertensive rats; experiment: Antihypertensive action in spontaneously hypertensive rats (tail-cuff); assay type: in vivo, rat; conditions: 1 hour after administration
Method: Spontaneously hypertensive rats (male, 12 to 13 weeks old, blood pressure before administration of drug was about 200 mmHg) were used in groups of 3 individuals. After measuring tail arterial pressure of these animals by the tail-cuff method, the animals were orally given 3 to 60 mg/kg of each test compound of this invention as 2 ml of its suspension in gum arabic. Blood pressure measurements were made again one hour after administration of each test compound.

[5] = test system: contraction of rabbit aorta strip caused by KCl; experiment: Vasodilating action: inhibition of contraction of aorta strip caused by KCl; conditions: Oryctolagus cuniculus, compound 10^-5 M, KCl (6.0 mM), read-out: Inhibitory percent against contraction (KCl)
Method: as §1

[6] = test system: acute renal failure in rats; experiment: Effect on acute renal failure in rats (plasma urea nitrogen, BUN); assay type: in vivo, rat; conditions: p.o., control 27 ± 1, *P < 0.05
Method: Male sprague-Dawley rats, 6 week old, were orally given the compunds or tap water at a volume of 5 ml/kg. After one hour, the animals were anesthetized with sodium pentobarbital. The animals were subjected to laparotomy, and the left renal artery was clamped completely for one hour. The clamp was undone, and the incision was closed. The animals were again given orally the compounds or tap water 20 hours later. Further four hours later, the animals were again anesthetized, and the blood was obtained from the abdominal aorta. The plasma was separated for measurement of urea nitrogen (BUN).

[7] = test system: caffeine-induced contraction of rabbit aorta strip depending on intracellular Ca^++; experiment: Intracellular Ca++ antagonism: inhibition of caffeine-induced contraction of aorta strip in Ca-free/EGTA solution; conditions: Oryctolagus cuniculus, caffeine 20 mM, Ca++ 0 mM, EGTA 5 mM, read-out: Inhibitory percent (caffeine contraction); for inhibition at 10 µM: compound 10^-5 M; for inhibition at 1 µM: compound 10^-6 M
Method: A spiral strip of aorta of a rabbit (2 to 3 mm width, aobut 3 cm length) was allowed to equilibrate by hanging under 2 g force in a Krebs-Henseleitsolution. The solution was saturated with a mixture gas of 97% O2 -3% CO2, which was warmed to 37° C. The strip was moved into another Krebs-Henseleit solution containing Ca^++ OmM and EGTA 5 mM. Five minutes later, caffeine (20 mM) was added to the solution. The resulting contraction of the strip was made as the index of the contraction depending on intracellular Ca^++.

[8] = Acute toxicity (oral, 7 days observation); conditions: rat, in vivo, male rats, five animals/group, seven days
Source text: Male Wister rats aged five weeks (five animals/group) were orally given the test compounds (Example No. 1, 14, 15 and 18) suspended in a 5% solution of gum arabic. Each animal so treated was observed over a period of seven days.

[9] = treating 3 hours before the test (*1)
[10] = treated 30 minutes before the test

Row | Compound | Antihypertensive effect (Δ mm Hg) ([4]; 3 mg/kg oral) [mm Hg] | inhibition at 10 µM [2, 10] [%] | inhibition at 10 µM [5, 10] [%] | further results
1 | O=C1Nc2cc3c(cc2OC1CCCN1CCN(c2ccc(F)cc2)CC1)CCCC3 (stereo not shown) [1 (2HCl salt), 2-{3-[4-(4-fluorophenyl)-1-piperazinyl]propyl}-6,7,8,9-tetrahydro-2H-naphtho[2,3-b][1,4]oxazin-3(4H)-one] | 30 | – | – | Cardiac arrest incidence ([1]; 3 mg/kg): 2/9; Ventricular fibrillation incidence ([1]; 3 mg/kg, *P < 0.05): 5/9; Ventricular tachycardia incidence ([1]; 3 mg/kg): 7/9; Cardiac arrest incidence ([1]; 10 mg/kg): 4/11; Ventricular fibrillation incidence ([1]; 10 mg/kg, **P < 0.01): 5/11; Ventricular tachycardia incidence ([1]; 10 mg/kg, **P < 0.01): 7/11; Cardiac arrest incidence ([1]; 20 mg/kg): 0/5; Ventricular fibrillation incidence ([1]; 20 mg/kg, **P < 0.01): 0/5; Ventricular tachycardia incidence ([1]; 20 mg/kg, **P < 0.01): 2/5; inhibition at 10 µM ([2]; treating 2 hours before the test (*2)): 95%; inhibition at 10 µM [3]: 52%; Antihypertensive effect (Δ mm Hg) ([4]; 10 mg/kg oral): 50 mm Hg; inhibition at 10 µM [5, 9]: 82%; BUN ([6]; 1 mg/kg): 24 ± 0.5 mg/dL; BUN ([6]; 3 mg/kg): 22 ± 2 mg/dL; BUN ([6]; 10 mg/kg): 23 ± 0.5 mg/dL
2 | O=C1Nc2ccccc2OC1CCCN1CCN(c2ccc(F)cc2)CC1 (stereo not shown) [Example 2] | – | 100 | – | Antihypertensive effect (Δ mm Hg) ([4]; 60 mg/kg oral): 44 mm Hg; inhibition at 10 µM [5, 9]: 73%
3 | Cc1ccc2c(c1)NC(=O)C(CCCN1CCN(c3ccc(F)cc3)CC1)O2 (stereo not shown) [Example 3] | – | 99 | 10 | inhibition at 10 µM [7]: 60%; inhibition at 10 µM [3]: 91%; Antihypertensive effect (Δ mm Hg) ([4]; 60 mg/kg oral): 45 mm Hg
4 | Cc1ccc2c(c1)NC(=O)C(CCN1CCN(c3ccc(F)cc3)CC1)O2 (stereo not shown) [Example 5] | – | 86 | 9 | inhibition at 10 µM [7]: 58%; inhibition at 10 µM [3]: 100%
5 | O=C1Nc2cc([N+](=O)[O-])ccc2OC1CCCN1CCN(c2ccc(F)cc2)CC1 (stereo not shown) [Example 6, 2-{3-[4-(4-fluorophenyl)-1-piperazinyl]propyl}-6-nitro-2H-1,4-benzoxazin-3(4H)-one] | – | 100 | 37 | inhibition at 10 µM [3]: 81%; Antihypertensive effect (Δ mm Hg) ([4]; 60 mg/kg oral): 43 mm Hg
6 | O=C1Nc2cc(Cl)ccc2OC1CCCN1CCN(c2ccc(F)cc2)CC1 (stereo not shown) [Example 7] | – | 98 | 29 | inhibition at 10 µM [3]: 81%
7 | CCOC(=O)c1ccc2c(c1)OC(CCCN1CCN(c3ccc(F)cc3)CC1)C(=O)N2 (stereo not shown) [Example 8] | – | 98 | 33 | Antihypertensive effect (Δ mm Hg) ([4]; 60 mg/kg oral): 35 mm Hg
8 | O=C1Nc2c(ccc3c2CCCC3)OC1CCCN1CCN(c2ccc(F)cc2)CC1 (stereo not shown) [Example 10] | – | – | – | inhibition at 10 µM [7]: 59%; Antihypertensive effect (Δ mm Hg) ([4]; 10 mg/kg oral): 23 mm Hg
9 | O=C1Nc2cc3c(cc2OC1CCCN1CCN(c2ccc(F)cc2)CC1)CCC3 (stereo not shown) [Example 12] | 20 | 100 | 21 | –
10 | O=C1Nc2cc3c(cc2OC1CCCN1CCN(c2ccc(F)cc2)CC1)OCO3 (stereo not shown) [Example 13] | 27 | 100 | 24 | –
11 | O=C1Nc2cc3c(cc2OC1CCCN1CCN(c2cccc(F)c2)CC1)CCCC3 (stereo not shown) [Example 14] | 54 | – | – | LD50 at 168 h [8]: ≥ 300 mg/kg; inhibition at 1 µM [7]: 61%
12 | COc1ccccc1N1CCN(CCCC2Oc3cc4c(cc3NC2=O)CCCC4)CC1 (stereo not shown) [Example 15] | 49 | 100 | 8 | LD50 at 168 h [8]: ≥ 300 mg/kg; inhibition at 1 µM [7]: 58%
13 | Cc1ccc(N2CCN(CCCC3Oc4cc5c(cc4NC3=O)CCCC5)CC2)cc1 (stereo not shown) [Example 17] | 26 | – | – | –
14 | O=C1Nc2cc3c(cc2OC1CCCN1CCN(c2ccccc2)CC1)CCCC3 (stereo not shown) [Example 18] | 32 | – | – | LD50 at 168 h [8]: ≥ 300 mg/kg; inhibition at 1 µM [7]: 59%
15 | O=C1Nc2cc3c(cc2OC1CCCN1CCN(c2ccc(O)cc2)CC1)CCCC3 (stereo not shown) [Example 21] | – | 99 | 26 | inhibition at 1 µM [7]: 54%
16 | O=C1Nc2cc3c(cc2OC1CCCCN1CCN(c2ccc(F)cc2)CC1)CCCC3 (stereo not shown) [Example 22] | 23 | 95 | 14 | inhibition at 10 µM [3]: 38%
17 | CN1C(=O)C(CCCN2CCN(c3ccc(F)cc3)CC2)Oc2cc3c(cc21)CCCC3 (stereo not shown) [Example 23, 2-{3-[4-(4-fluorophenyl)-1-piperazinyl]propyl}-6,7,8,9-tetrahydro-4-methyl-2H-naphtho[2,3-b][1,4]oxazin-3(4H)-one] | – | – | – | inhibition at 1 µM [7]: 42%
18 | Nc1ccc2c(c1)NC(=O)C(CCCN1CCN(c3ccc(F)cc3)CC1)O2 (stereo not shown) [Example 24, 6-amino-2-{3-[4-(4-fluorophenyl)-1-piperazinyl]propyl}-2H-1,4-benzoxazin-3(4H)-one] | – | – | – | Antihypertensive effect (Δ mm Hg) ([4]; 60 mg/kg oral): 60 mm Hg
19 | CC(=O)Nc1ccc2c(c1)NC(=O)C(CCCN1CCN(c3ccc(F)cc3)CC1)O2 (stereo not shown) [Example 25, 6-acetamido-2-{3-[4-(4-fluorophenyl)-1-piperazinyl]propyl}-2H-1,4-benzoxazin-3(4H)-one] | – | 100 | 9 | Antihypertensive effect (Δ mm Hg) ([4]; 60 mg/kg oral): 81 mm Hg
20 | O=C1Nc2cc(C(F)(F)F)ccc2OC1CCCN1CCN(c2ccc(F)cc2)CC1 (stereo not shown) [Example 27, 2-{3-[4-(4-fluorophenyl)-1-piperazinyl]propyl}-6-trifluoromethyl-2H-1,4-benzoxazin-3(4H)-one] | – | 98 | 36 | –
21 | O=C1Nc2c(ccc3c2CCC3)OC1CCCN1CCN(c2ccc(F)cc2)CC1 (stereo not shown) [Example 28, 5,6-cyclopenteno-2-{3-[4-(4-fluorophenyl)-1-piperazinyl]propyl}-2H-1,4-benzoxazin-3(4H)-one] | 20 | 100 | 28 | –
22 | O=C1Nc2cc3c(cc2O[C@H]1CCCN1CCN(c2ccc(F)cc2)CC1)CCCC3 [Example 30, (S)-(-)-2-{3-[4-(4-fluorophenyl)-1-piperazinyl]propyl}-6,7,8,9-tetrahydro-2H-naphtho[2,3-b][1,4]oxazin-3(4H)-one] | 21 | 73 | 33 | –
23 | O=C1Nc2cc3c(cc2O[C@@H]1CCCN1CCN(c2ccc(F)cc2)CC1)CCCC3 [Example 31, (R)-(+)-2-{3-[4-(4-fluorophenyl)-1-piperazinyl]propyl}-6,7,8,9-tetrahydro-2H-naphtho[2,3-b][1,4]oxazin-3(4H)-one] | 21 | 99 | 30 | –
